Biological target: N-terminally GST-tagged HCK (75-526) (Homo sapiens (Human), UniProt P08631)
Test: HCK Kinase Assay (ProFluor Src-Family Kinase Assay)
Assay type: biochemical
Conditions: HCK inhibitory activity, 50 μM ATP; read-out: HCK Activity
Protocol: The procedure of ProFluor Src-Family Kinase Assay (Promega, Cat. No. V1271) was then followed. To the reaction was added 5 μL Protease solution and the mixture was incubated for 60 minutes at room temperature (22-25° C.), followed by 5 μL Stabilizer solution. The fluorescence signal was read on an Envision multilabel plate reader (Perkin Elmer). The R110 was then read at an excitation wavelength of 485 nm and an emission wavelength of 530 nm. The AMC signal was read at an excitation wavelength of 355 nm and an emission wavelength of 460 nm.

N-terminally GST-tagged HCK (75-526), sequence (P08631 75-526): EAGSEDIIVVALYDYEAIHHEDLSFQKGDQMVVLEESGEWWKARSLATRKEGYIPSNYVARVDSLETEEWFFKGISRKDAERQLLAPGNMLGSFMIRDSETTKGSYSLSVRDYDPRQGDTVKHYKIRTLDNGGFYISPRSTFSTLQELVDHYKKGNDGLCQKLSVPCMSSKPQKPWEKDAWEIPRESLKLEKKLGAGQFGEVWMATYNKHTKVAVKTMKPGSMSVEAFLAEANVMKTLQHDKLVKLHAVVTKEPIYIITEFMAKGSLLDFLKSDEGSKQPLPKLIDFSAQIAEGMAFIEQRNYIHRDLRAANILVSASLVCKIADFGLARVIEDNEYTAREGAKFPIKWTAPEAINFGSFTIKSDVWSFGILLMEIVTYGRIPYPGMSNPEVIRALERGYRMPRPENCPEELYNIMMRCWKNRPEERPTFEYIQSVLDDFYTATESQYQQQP

| Compound | IC50 [nM] |
| --- | --- |
| Nc1ncnc2c1c(-c1ccc(Oc3ccccc3)cc1)cn2[C@H]1CC[C@H](N2CCC[C@@H](N)C2)CC1 [Example 59, 7-((trans)-4-((R)-3-aminopiperidin-1-yl)cyclohexyl)-5-(4-phenoxyphenyl)-7H-pyrrolo[2,3-d]pyrimidin-4-amine] | < 50 |
| CN[C@@H]1CCCN([C@H]2CC[C@H](n3cc(-c4ccc(Oc5ccccc5)cc4)c4c(N)ncnc43)CC2)C1 [Example 60, 7-((trans)-4-((R)-3-(methylamino)piperidin-1-yl)cyclohexyl)-5-(4-phenoxyphenyl)-7H-pyrrolo[2,3-d]pyrimidin-4-amine] | < 50 |
| CN[C@@H]1CCCN([C@H]2CC[C@@H](n3cc(-c4ccc(Oc5ccccc5)cc4)c4c(N)ncnc43)CC2)C1 [Example 61, 7-((cis)-4-((R)-3-(methylamino)piperidin-1-yl)cyclohexyl)-5-(4-phenoxyphenyl)-7H-pyrrolo[2,3-d]pyrimidin-4-amine] | < 50 |
| CN(C)[C@@H]1CCCN([C@H]2CC[C@H](n3cc(-c4ccc(Oc5ccccc5)cc4)c4c(N)ncnc43)CC2)C1 [Example 62, 7-((trans)-4-((R)-3-(dimethylamino)piperidin-1-yl)cyclohexyl)-5-(4-phenoxyphenyl)-7H-pyrrolo[2,3-d]pyrimidin-4-amine] | < 50 |
| Nc1ncnc2c1c(-c1ccc(Oc3ccccc3)cc1)cn2[C@H]1CC[C@H](N2CCSCC2)CC1 [Example 63, 5-(4-phenoxyphenyl)-7-((trans)-4-thiomorpholinocyclohexyl)-7H-pyrrolo[2,3-d]pyrimidin-4-amine] | 250 to 10000 |
| Nc1ncnc2c1c(-c1ccc(Oc3ccccc3)cc1)cn2[C@H]1CC[C@H](N2CCS(=O)(=O)CC2)CC1 [Example 65, 4-((trans)-4-(4-amino-5-(4-phenoxyphenyl)-7H-pyrrolo[2,3-d]pyrimidin-7-yl)cyclohexyl)thiomorpholine 1,1-dioxide] | 50 to 250 |
| Nc1ncnc2c1c(-c1ccc(Oc3ccccc3)cc1)cn2[C@H]1CC[C@@H](N2CCS(=O)(=O)CC2)CC1 [Example 66, 4-((cis)-4-(4-amino-5-(4-phenoxyphenyl)-7H-pyrrolo[2,3-d]pyrimidin-7-yl)cyclohexyl)thiomorpholine 1,1-dioxide] | 50 to 250 |
| CP1(=O)CCN([C@H]2CC[C@H](n3cc(-c4ccc(Oc5ccccc5)cc4)c4c(N)ncnc43)CC2)CC1 [Example 67, 1-((trans)-4-(4-amino-5-(4-phenoxyphenyl)-7H-pyrrolo[2,3-d]pyrimidin-7-yl)cyclohexyl)-4-methyl-1,4-azaphosphinane 4-oxide] | 50 to 250 |
| CP1(=O)CCN([C@H]2CC[C@@H](n3cc(-c4ccc(Oc5ccccc5)cc4)c4c(N)ncnc43)CC2)CC1 [Example 68, 1-((cis)-4-(4-amino-5-(4-phenoxyphenyl)-7H-pyrrolo[2,3-d]pyrimidin-7-yl)cyclohexyl)-4-methyl-1,4-azaphosphinane 4-oxide] | < 50 |
| Nc1ncnc2c1c(-c1ccc(Oc3ccccc3)cc1)cn2[C@H]1CC[C@H](N2CCC(S(N)(=O)=O)CC2)CC1 [Example 69, 1-((trans)-4-(4-amino-5-(4-phenoxyphenyl)-7H-pyrrolo[2,3-d]pyrimidin-7-yl)cyclohexyl)piperidine-4-sulfonamide] | 50 to 250 |
| Nc1ncnc2c1c(-c1ccc(Oc3ccccc3)cc1)cn2[C@H]1CC[C@@H](N2CCC(S(N)(=O)=O)CC2)CC1 [Example 70, 1-((cis)-4-(4-amino-5-(4-phenoxyphenyl)-7H-pyrrolo[2,3-d]pyrimidin-7-yl)cyclohexyl)piperidine-4-sulfonamide] | 50 to 250 |
| CN(C)[C@H]1CN([C@H]2CC[C@H](n3cc(-c4ccc(Oc5ccccc5)cc4)c4c(N)ncnc43)CC2)C[C@H]1O [Example 71, (3R,4S)-1-((trans)-4-(4-amino-5-(4-phenoxyphenyl)-7H-pyrrolo[2,3-d]pyrimidin-7-yl)cyclohexyl)-4-(dimethylamino)pyrrolidin-3-ol] | < 50 |
| CN(C)[C@H]1CN([C@H]2CC[C@@H](n3cc(-c4ccc(Oc5ccccc5)cc4)c4c(N)ncnc43)CC2)C[C@H]1O [Example 72, (3R,4S)-1-((cis)-4-(4-amino-5-(4-phenoxyphenyl)-7H-pyrrolo[2,3-d]pyrimidin-7-yl)cyclohexyl)-4-(dimethylamino)pyrrolidin-3-ol] | < 50 |
| CN(C)[C@@H]1CN([C@H]2CC[C@H](n3cc(-c4ccc(Oc5ccccc5)cc4F)c4c(N)ncnc43)CC2)C[C@H]1O [Example 73, (3R,4R)-1-((trans)-4-(4-amino-5-(2-fluoro-4-phenoxyphenyl)-7H-pyrrolo[2,3-d]pyrimidin-7-yl)cyclohexyl)-4-(dimethylamino)pyrrolidin-3-ol] | < 50 |
| CN(C)[C@@H]1CN([C@H]2CC[C@@H](n3cc(-c4ccc(Oc5ccccc5)cc4F)c4c(N)ncnc43)CC2)C[C@H]1O [Example 74, (3R,4R)-1-((cis)-4-(4-amino-5-(2-fluoro-4-phenoxyphenyl)-7H-pyrrolo[2,3-d]pyrimidin-7-yl)cyclohexyl)-4-(dimethylamino)pyrrolidin-3-ol] | 50 to 250 |
| Nc1ncnc2c1c(-c1ccc(Oc3ccccc3)cc1)cn2[C@H]1CC[C@H](N2C[C@@H](O)[C@@H](O)C2)CC1 [Example 75, (3R,4S)-1-((trans)-4-(4-amino-5-(4-phenoxyphenyl)-7H-pyrrolo[2,3-d]pyrimidin-7-yl)cyclohexyl)pyrrolidine-3,4-diol] | 50 to 250 |
| Nc1ncnc2c1c(-c1ccc(Oc3ccccc3)cc1)cn2[C@H]1CC[C@@H](N2C[C@@H](O)[C@@H](O)C2)CC1 [Example 76, (3R,4S)-1-((cis)-4-(4-amino-5-(4-phenoxyphenyl)-7H-pyrrolo[2,3-d]pyrimidin-7-yl)cyclohexyl)pyrrolidine-3,4-diol] | 50 to 250 |
| Nc1ncnc2c1c(-c1ccc(Oc3ccccc3)cc1)cn2[C@H]1CC[C@H](N2CC(N)C2)CC1 [Example 77, 7-((trans)-4-(3-aminoazetidin-1-yl)cyclohexyl)-5-(4-phenoxyphenyl)-7H-pyrrolo[2,3-d]pyrimidin-4-amine] | < 50 |
| Nc1ncnc2c1c(-c1ccc(Oc3ccccc3)cc1)cn2[C@H]1CC[C@@H](N2CC(N)C2)CC1 [Example 78, 7-((cis)-4-(3-aminoazetidin-1-yl)cyclohexyl)-5-(4-phenoxyphenyl)-7H-pyrrolo[2,3-d]pyrimidin-4-amine] | 250 to 10000 |
| CN1CC2(C1)CN([C@H]1CC[C@H](n3cc(-c4ccc(Oc5ccccc5)cc4)c4c(N)ncnc43)CC1)C2 [Example 79, 7-((trans)-4-(6-methyl-2,6-diazaspiro[3.3]heptan-2-yl)cyclohexyl)-5-(4-phenoxyphenyl)-7H-pyrrolo[2,3-d]pyrimidin-4-amine] | 50 to 250 |
| CN1CC2(C1)CN([C@H]1CC[C@@H](n3cc(-c4ccc(Oc5ccccc5)cc4)c4c(N)ncnc43)CC1)C2 [Example 80, 7-((cis)-4-(6-methyl-2,6-diazaspiro[3.3]heptan-2-yl)cyclohexyl)-5-(4-phenoxyphenyl)-7H-pyrrolo[2,3-d]pyrimidin-4-amine] | 250 to 10000 |
| Nc1ncn([C@H]2CC[C@H](n3cc(-c4ccc(Oc5ccccc5)cc4)c4c(N)ncnc43)CC2)n1 [Example 81, 7-((trans)-4-(3-amino-1H-1,2,4-triazol-1-yl)cyclohexyl)-5-(4-phenoxyphenyl)-7H-pyrrolo [2,3-d]pyrimidin-4-amine] | < 50 |
| Nc1ncn([C@H]2CC[C@@H](n3cc(-c4ccc(Oc5ccccc5)cc4)c4c(N)ncnc43)CC2)n1 [Example 82, 7-((cis)-4-(3-amino-1H-1,2,4-triazol-1-yl)cyclohexyl)-5-(4-phenoxyphenyl)-7H-pyrrolo[2,3-d]pyrimidin-4-amine] | < 50 |
| Nc1ncnc2c1c(-c1ccc(Oc3ccccc3)cc1)cn2[C@H]1CC[C@H](NC2CNC2)CC1 [Example 83, 7-((trans)-4-(azetidin-3-ylamino)cyclohexyl)-5-(4-phenoxyphenyl)-7H-pyrrolo[2,3-d]pyrimidin-4-amine] | 50 to 250 |
| Nc1ncnc2c1c(-c1ccc(Oc3ccccc3)cc1)cn2[C@H]1CC[C@@H](NC2CNC2)CC1 [Example 84, 7-((cis)-4-(azetidin-3-ylamino)cyclohexyl)-5-(4-phenoxyphenyl)-7H-pyrrolo[2,3-d]pyrimidin-4-amine] | 50 to 250 |
| Nc1ncnc2c1c(-c1ccc(Oc3ccccc3)cc1)cn2[C@H]1CC[C@H](NCc2n[nH]c(=O)[nH]2)CC1 [Example 85, 3-((((trans)-4-(4-amino-5-(4-phenoxyphenyl)-7H-pyrrolo[2,3-d]pyrimidin-7-yl)cyclohexyl)amino)methyl)-1H-1,2,4-triazol-5(4H)-one] | < 50 |
| CN1CCN([C@H]2CC[C@H](n3c(Br)c(-c4ccc(Oc5ccccc5)cc4)c4c(N)ncnc43)CC2)CC1 [Example 86, 6-Bromo-7-((trans)-4-(4-methylpiperazin-1-yl)cyclohexyl)-5-(4-phenoxyphenyl)-7H-pyrrolo[2,3-d]pyrimidin-4-amine] | 50 to 250 |
| CN1CCN([C@H]2CC[C@H](n3cc(-c4ccc(Oc5ccccc5)cc4)c4c(O)ncnc43)CC2)CC1 [Example 87, 7-((trans)-4-(4-Methylpiperazin-1-yl)cyclohexyl)-5-(4-phenoxyphenyl)-7H-pyrrolo[2,3-d]pyrimidin-4-ol] | < 50 |
| CC(C)(O)CN1CCN([C@H]2CC[C@H](n3cc(-c4ccc(Oc5ccccc5)cc4)c4c(N)ncnc43)CC2)CC1 [Example 89, 1-(4-((trans)-4-(4-amino-5-(4-phenoxyphenyl)-7H-pyrrolo[2,3-d]pyrimidin-7-yl)cyclohexyl)piperazin-1-yl)-2-methylpropan-2-ol] | < 50 |
| Nc1ncnc2c1c(-c1ccc(Oc3ccccc3)cc1)cn2[C@H]1CC[C@H](N2CCNCC2=O)CC1 [Example 90, 1-((trans)-4-(4-Amino-5-(4-phenoxyphenyl)-7H-pyrrolo[2,3-d]pyrimidin-7-yl)cyclohexyl)piperazin-2-one] | < 50 |
